Source: the NIST ThermoML archive (doi:10.1021/acs.jced.6b00542)

Assay: xn = mol fraction of the nth substance listed
Conditions: for speed of sound: 100 kPa, Frequency=3 MHz, Sing-around technique in a fixed-path interferometer; for speed of sound / viscosity / mass density: Liquid; for viscosity / mass density: 102 kPa; for viscosity: Concentric cylinders viscometry; for mass density: Vibrating tube method; for surface tension liquid-gas: 294.5 K, Pendant drop shape

CCCCc1ccccc1 [butylbenzene] + CCCCCCCCCCCC
Conditions	mass density [kg/m3]	speed of sound [m/s]	viscosity [mPa·s]
293.15 K, x1 = 0.1241	758.28	1300.2	1.38
293.15 K, x1 = 0.2414	768.11	1302.8	1.31
293.15 K, x1 = 0.3524	778.18	1306.4	1.24
293.15 K, x1 = 0.4583	788.6	1310.3	1.19
293.15 K, x1 = 0.5593	799.56	1315.4	1.15
293.15 K, x1 = 0.6552	810.7	1321.3	1.11
293.15 K, x1 = 0.7575	823.88	1328.6	1.08
293.15 K, x1 = 0.8349	834.67	1335.5	1.06
293.15 K, x1 = 0.9194	847.33	1343.9	1.04
293.15 K, x1 = 1	860.51	1353.7	1.05
303.15 K, x1 = 0.1241	750.96	1262	1.17
303.15 K, x1 = 0.2414	760.73	1264.8	1.12
303.15 K, x1 = 0.3524	770.74	1268.4	1.07
303.15 K, x1 = 0.4583	781.11	1272.3	1.03
303.15 K, x1 = 0.5593	791.97	1277.3	0.996
303.15 K, x1 = 0.6552	803.03	1283.1	0.968
303.15 K, x1 = 0.7575	816.12	1290.4	0.941
303.15 K, x1 = 0.8349	826.84	1297	0.925
303.15 K, x1 = 0.9194	839.4	1305.4	0.909
303.15 K, x1 = 1	852.49	1314.9	0.91
313.15 K, x1 = 0.1241	743.61	1224.4	1.01
313.15 K, x1 = 0.2414	753.32	1227.2	0.968
313.15 K, x1 = 0.3524	763.26	1230.8	0.931
313.15 K, x1 = 0.4583	773.56	1234.7	0.9
313.15 K, x1 = 0.5593	784.35	1239.7	0.873
313.15 K, x1 = 0.6552	795.32	1245.4	0.85
313.15 K, x1 = 0.7575	808.33	1252.5	0.829
313.15 K, x1 = 0.8349	818.96	1259.1	0.816
313.15 K, x1 = 0.9194	831.44	1267.3	0.804
313.15 K, x1 = 1	844.43	1276.6	0.801
323.15 K, x1 = 0.1241	736.23	1187.2	0.879
323.15 K, x1 = 0.2414	745.87	1190	0.846
323.15 K, x1 = 0.3524	755.75	1193.7	0.817
323.15 K, x1 = 0.4583	765.97	1197.6	0.793
323.15 K, x1 = 0.5593	776.69	1202.5	0.771
323.15 K, x1 = 0.6552	787.58	1208.1	0.753
323.15 K, x1 = 0.7575	800.5	1215.2	0.736
323.15 K, x1 = 0.8349	811.06	1221.6	0.725
323.15 K, x1 = 0.9194	823.44	1229.7	0.716
323.15 K, x1 = 1	836.34	1238.7	0.713
333.15 K, x1 = 0.1241	728.82	1150.5	0.771
333.15 K, x1 = 0.2414	738.39	1153.4	0.745
333.15 K, x1 = 0.3524	748.19	1157	0.722
333.15 K, x1 = 0.4583	758.34	1161	0.703
333.15 K, x1 = 0.5593	768.98	1165.8	0.686
333.15 K, x1 = 0.6552	779.81	1171.3	0.671
333.15 K, x1 = 0.7575	792.63	1178.4	0.657
333.15 K, x1 = 0.8349	803.11	1184.6	0.649
333.15 K, x1 = 0.9194	815.41	1192.5	0.64
333.15 K, x1 = 1	828.21	1201.4	0.636
343.15 K, x1 = 0.1241	721.2	–	0.683
343.15 K, x1 = 0.2414	730.8	–	0.662
343.15 K, x1 = 0.3524	740.5	–	0.643
343.15 K, x1 = 0.4583	750.7	–	0.627
343.15 K, x1 = 0.5593	761.2	–	0.614
343.15 K, x1 = 0.6552	771.9	–	0.602
343.15 K, x1 = 0.7575	784.7	–	0.59
343.15 K, x1 = 0.8349	795.1	–	0.583
343.15 K, x1 = 0.9194	807.2	–	0.576
343.15 K, x1 = 1	819.9	–	0.571
353.15 K, x1 = 0.1241	713.7	–	0.608
353.15 K, x1 = 0.2414	723.2	–	0.591
353.15 K, x1 = 0.3524	732.9	–	0.576
353.15 K, x1 = 0.4583	743	–	0.563
353.15 K, x1 = 0.5593	753.4	–	0.552
353.15 K, x1 = 0.6552	764	–	0.542
353.15 K, x1 = 0.7575	776.7	–	0.532
353.15 K, x1 = 0.8349	787	–	0.526
353.15 K, x1 = 0.9194	799.1	–	0.521
353.15 K, x1 = 1	811.7	–	0.516
363.15 K, x1 = 0.1241	706.1	–	0.546
363.15 K, x1 = 0.2414	715.6	–	0.532
363.15 K, x1 = 0.3524	725.1	–	0.519
363.15 K, x1 = 0.4583	735.2	–	0.508
363.15 K, x1 = 0.5593	745.5	–	0.499
363.15 K, x1 = 0.6552	756	–	0.491
363.15 K, x1 = 0.7575	768.6	–	0.483
363.15 K, x1 = 0.8349	778.9	–	0.478
363.15 K, x1 = 0.9194	790.9	–	0.473
363.15 K, x1 = 1	803.4	–	0.469
373.15 K, x1 = 0.1241	698.5	–	0.493
373.15 K, x1 = 0.2414	707.8	–	0.481
373.15 K, x1 = 0.3524	717.3	–	0.471
373.15 K, x1 = 0.4583	727.2	–	0.461
373.15 K, x1 = 0.5593	737.5	–	0.454
373.15 K, x1 = 0.6552	747.9	–	0.447
373.15 K, x1 = 0.7575	760.5	–	0.44
373.15 K, x1 = 0.8349	770.7	–	0.436
373.15 K, x1 = 0.9194	782.6	–	0.432
373.15 K, x1 = 1	795	–	0.43

Conditions	surface tension liquid-gas [mN/m]
x1 = 0.1241	25.4
x1 = 0.2414	26
x1 = 0.3524	26.3
x1 = 0.4583	26.2
x1 = 0.5593	26.7
x1 = 0.6552	27
x1 = 0.7575	27.5
x1 = 0.8349	27.7
x1 = 0.9194	28.4
